In patent US20230203004A1, “RSV INHIBITING 3-SUBSTITUTED QUINOLINE AND CINNOLINE DERIVATIVES” (Janssen Sciences Ireland Unlimited Company, priority 2020, published 2023):
Where two headings read alike, the source gives them in different places.

Experiments:
[1] = test system: rgRSV224 virus; assay: Antiviral activity: rgRSV224 (GFP) replication in HeLa cells; format: cell-based, respiratory syncytial virus (RSV)
How it was run: (§1)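 Over 3 days at 37 °C, compound titrations (4-fold steps, nine dilutions) were tested on HeLa cells infected with rgRSV224 (MOI = 1), inhibition of GFP signal giving EC50. In parallel plates, ATP content of HeLa cells after 3-day exposure defined CC50.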

[2] = test system: HeLa cells; assay: Cytotoxicity in HeLa cells (ATP content, ATPlite kit); format: cell-based
How it was run: as §1

[3] = HeLa cells, rgRSV224 MOI = 1, GFP expression three days post-virus exposure; averaged data of several repeat experiments; read-out: RSV HELA EC50
[4] = HeLa cells, three days incubation, ATP content, averaged data of several repeat experiments, read-out: TOX HELA CC50
[5] = read-out: RSV HELA EC50; HeLa cells, rgRSV224 MOI = 1, GFP expression three days post-virus exposure; averaged data of several repeat experiments

Compound	EC50 [1, 3]	CC50 [2, 4]	CC50 [2]	EC50 [1, 5]	CC50 ([2]; human, 3 days)
COc1cc(C(=O)NCC(O)(c2cc(C(C)(C)O)c(F)c(-c3ccc(C(F)(F)F)cc3)n2)C2CC2)cc2cc(C)nnc12 (single isomer, unassigned; (-)) [compound 253]	0.00025 µM	13 µM			
COc1cc(C(=O)NCC(O)(c2cc(C(C)(C)O)c(F)c(-c3ccc(F)c(F)c3)n2)C2CC2)cc2cc(C)nnc12 (single isomer, unassigned; (-)) [compound 256]	0.00019 µM	33 µM			
Cc1cc2cc(C(=O)NCC(O)(c3nc(-c4ccc(F)cc4)c(F)c(C(C)(C)O)c3F)C(F)(F)F)cc(OC3CC3)c2nn1 (single isomer, unassigned; (-)) [compound 262, (-)(Cyclopropyloxy)-N-{2-[3,5-Difluoro-6-(4-Fluorophenyl)-4-(2-Hydroxypropan-2-yl)Pyridin-2-yl]-3,3,3-Trifluoro-2-Hydroxypropyl}-3-Methylcinnoline-6-Carboxamide]	0.0019 µM	45 µM			
Cc1cc2cc(C(=O)NCC(O)(c3nc(-c4ccc(F)cc4)c(Cl)c(C(C)(C)O)c3F)C(F)(F)F)cc(OC3CC3)c2nn1 (single isomer, unassigned; (-)) [compound 263]	0.0027 µM	47 µM			
COc1cc(C(=O)NC[C@@](O)(c2nc(-c3ccc(F)cc3)c(F)c(C(C)(C)O)c2C)C2CC2)cc2cc(C)nnc12 [compound 245]	0.0029 µM		48 µM		
COc1cc(C(=O)NC[C@](O)(c2nc(-c3ccc(F)cc3)c(F)c(C(C)(C)O)c2C)C2CC2)cc2cc(C)nnc12 [compound 246]	0.2 µM		46 µM		
Cc1cc2cc(C(=O)NC[C@](O)(c3cc(C(C)(C)O)c(F)c(-c4ccc(F)cc4)n3)C3(F)CC3)cc(OC3CC3)c2nn1 [compound 317, (-)Cyclopropoxy-N-(2-(5-Fluoro-6-(4-Fluorophenyl)-4-(2-Hydroxypropan-2-yl)Pyridin-2-yl)-2-(1-Fluorocyclopropyl)-2-Hydroxyethyl)-3-Methylcinnoline-6-Carboxamide]				0.00087 µM	29 µM
Cc1cc2cc(C(=O)NC[C@](O)(c3cc(C(C)(C)O)c(F)c(-c4ccc(F)cc4)n3)C3(F)CC3)cc(OC3CC3)c2nn1 [compound 335, (-)Cyclopropoxy-N-(2-(5-Fluoro-6-(4-Fluorophenyl)-4-(2-Hydroxypropan-2-yl)Pyridin-2-yl)-2-(1-Fluorocyclopropyl)-2-Hydroxyethyl)-3-Methylcinnoline-6-Carboxamide]				0.021 µM	~14 µM
